This is an account of results in PubChem BioAssay (NCI).

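Assay format: 96-well plates, 48-hour exposure. GI50 marks 50% less growth. TGI: total growth inhibition.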 Bounds are passed on as bounds.

Some test systems named below: NCI-H23 lung; NCI/ADR-RES ovarian; SR leukemia; UACC-257 melanoma; SK-MEL-2 melanoma; RPMI-8226 leukemia; MOLT-4 leukemia; HT29 colon; A549 NSCLC; NCI-H460 lung.
Common to all, as to assay: growth of human tumour cells (NCI), 48 h

For `O=C1c2ccccc2-c2c1c1ccccc1c(=O)n2Cc1ccccc1`, the TGI in the assay on NCI-H23 lung, in the assay with NCI/ADR-RES ovarian, in the assay with SR leukemia, with UACC-257 melanoma, with SK-MEL-2 melanoma and in the assay with RPMI-8226 leukemia was over 100 µM in each case. Moreover, the TGI in the assay with MOLT-4 leukemia, in the assay with HT29 colon and with A549 NSCLC was over 100 µM in each case.
With `Cc1ccc(C(=NN=C(N)N)c2ccc(C)cc2)cc1`, the GI50 was 0.98 µM in the assay on NCI-H23 lung; 1.85 µM in the assay with NCI/ADR-RES ovarian; 0.359 µM in the assay with NCI-H460 lung; 0.235 µM with SR leukemia; 0.498 µM with UACC-257 melanoma; 0.78 µM with SK-MEL-2 melanoma. The GI50 in the assay on RPMI-8226 leukemia was 1.07 µM; with MOLT-4 leukemia, 0.52 µM; in the assay on HT29 colon, 0.316 µM; in the assay with A549 NSCLC it was 0.451 µM. The TGI in the assay with NCI-H23 lung amounted to 8.66 µM; with NCI/ADR-RES ovarian it was 5.59 µM; in the assay on NCI-H460 lung, 1.33 µM; in the assay on SR leukemia it was 1.69 µM; in the assay with UACC-257 melanoma, 2.07 µM; in the assay with SK-MEL-2 melanoma, 2.94 µM. Moreover, the TGI stood at 4.87 µM with RPMI-8226 leukemia, 4.45 µM with MOLT-4 leukemia, 1.17 µM in the assay on HT29 colon and 7.09 µM in the assay with A549 NSCLC.
As to `CCN(CC)CCCC(C)Nc1c(C)cnc2cc(Cl)c(C)cc12` (stereo unspecified), the GI50 in the assay on NCI-H23 lung was 11.5 µM; in the assay on NCI/ADR-RES ovarian, 3.43 µM; in the assay with NCI-H460 lung, 14.1 µM; in the assay with UACC-257 melanoma it was 18.2 µM; in the assay with SK-MEL-2 melanoma, 20.4 µM; in the assay on RPMI-8226 leukemia it was 2.38 µM. The GI50 in the assay with MOLT-4 leukemia is 0.845 µM; in the assay on HT29 colon, 2.72 µM; in the assay with A549 NSCLC, 15.1 µM. Moreover, the TGI in the assay on NCI-H23 lung was 23.9 µM; with NCI/ADR-RES ovarian it was 10.7 µM; with NCI-H460 lung, 32.3 µM; with SR leukemia it was 3.17 µM; with UACC-257 melanoma it was 34.4 µM; with SK-MEL-2 melanoma, over 70.6 µM. Moreover, the TGI in the assay on RPMI-8226 leukemia was 9.82 µM; in the assay with MOLT-4 leukemia it was 8.27 µM; with HT29 colon it was over 24.8 µM; with A549 NSCLC it was 30 µM.
In the case of `Cc1cc(SCC(=O)c2ccccc2)nc2ccccc12`, the TGI in the assay with NCI-H23 lung, in the assay on NCI/ADR-RES ovarian, in the assay on NCI-H460 lung, in the assay on SR leukemia, with UACC-257 melanoma and in the assay with SK-MEL-2 melanoma was over 100 µM in each case. For the same compound, the TGI with RPMI-8226 leukemia, in the assay with MOLT-4 leukemia, in the assay on HT29 colon and in the assay on A549 NSCLC was over 100 µM in each case.
With `COC(=O)C(=O)C(C(=O)C(=O)Nc1ccccc1C(N)=O)c1nc2ccc(Cl)cc2[nH]c1=O` (stereo unspecified), the TGI in the assay with NCI-H23 lung, with NCI/ADR-RES ovarian, with NCI-H460 lung, with SR leukemia, with UACC-257 melanoma and in the assay with SK-MEL-2 melanoma was over 100 µM each time. For the same compound, the TGI with RPMI-8226 leukemia, in the assay with MOLT-4 leukemia, in the assay on HT29 colon and with A549 NSCLC was over 100 µM in each case.
Consider `NC(=S)N/N=C/c1ccc(OC(=O)COc2ccc(Cl)cc2)cn1`, for which the GI50 in the assay with NCI-H23 lung was 3.67 µM; in the assay on NCI/ADR-RES ovarian, 3.17 µM; in the assay with NCI-H460 lung, 3.91 µM; in the assay on SR leukemia, 0.498 µM; in the assay with UACC-257 melanoma, 17.9 µM; in the assay with SK-MEL-2 melanoma, 9.69 µM. Also, the GI50 in the assay on RPMI-8226 leukemia is 7.31 µM; in the assay on MOLT-4 leukemia, 2.26 µM; in the assay with HT29 colon, 7.19 µM; with A549 NSCLC, 34.5 µM. For the same compound, the TGI in the assay with NCI-H23 lung is over 100 µM; in the assay on NCI/ADR-RES ovarian it was over 100 µM; with NCI-H460 lung it was 18.9 µM; in the assay with SR leukemia it was over 100 µM; with UACC-257 melanoma, 72.1 µM; in the assay on SK-MEL-2 melanoma it was over 100 µM. Besides, the TGI in the assay on RPMI-8226 leukemia, with MOLT-4 leukemia, in the assay with HT29 colon and in the assay with A549 NSCLC was over 100 µM in each case.
For the compound `O=C(O)CC1OCC=C2CN3CCC45c6ccccc6NC4C1C2CC35` (stereo unspecified), the TGI in the assay on NCI-H23 lung, with NCI/ADR-RES ovarian, in the assay with NCI-H460 lung, in the assay on SR leukemia, in the assay on UACC-257 melanoma and with RPMI-8226 leukemia was over 100 µM in each case. For the same compound, the TGI with MOLT-4 leukemia, in the assay on HT29 colon and in the assay with A549 NSCLC was over 100 µM each time.
On to `NC(CC(=O)OCc1ccccc1)C(=O)OCc1ccccc1` (stereo unspecified), for which the TGI with NCI-H23 lung, with NCI/ADR-RES ovarian, with NCI-H460 lung, in the assay on SR leukemia, with UACC-257 melanoma and in the assay with SK-MEL-2 melanoma was over 100 µM throughout. Also, the TGI with RPMI-8226 leukemia and with A549 NSCLC was over 100 µM throughout.
With `CCC#CC[C@H]1C/C=C2/C(=O)C=C[C@@H]2C/C=C\CCCC(=O)O1`, the GI50 is 0.873 µM in the assay on NCI-H23 lung; 1.01 µM in the assay with NCI/ADR-RES ovarian; 1.14 µM with NCI-H460 lung; 0.328 µM with SR leukemia; 1.17 µM with SK-MEL-2 melanoma; 0.267 µM in the assay on RPMI-8226 leukemia. Further, the GI50 with MOLT-4 leukemia is 1.24 µM; in the assay with HT29 colon, 0.894 µM; in the assay on A549 NSCLC it was 1.24 µM. Besides, the TGI is 2.03 µM in the assay with NCI-H23 lung; 17.2 µM in the assay on NCI/ADR-RES ovarian; 3.65 µM with NCI-H460 lung; 4.26 µM in the assay on SR leukemia; 3.52 µM with SK-MEL-2 melanoma; 1.86 µM in the assay with RPMI-8226 leukemia. For the same compound, the TGI in the assay with MOLT-4 leukemia came out at 3.96 µM; in the assay on HT29 colon, 2.39 µM; in the assay with A549 NSCLC, 4.03 µM.
In the case of `COc1ccc2c(c1)C=C([N+](=O)[O-])C(C1OC(C)(C)OC1C1COC(C)(C)O1)O2` (stereo unspecified), the TGI in the assay with NCI-H23 lung stood at 24.2 µM; in the assay with NCI-H460 lung, 13.6 µM; in the assay with SR leukemia, 6.93 µM; in the assay with UACC-257 melanoma, 6.16 µM; in the assay on SK-MEL-2 melanoma, 4.36 µM; in the assay with RPMI-8226 leukemia, 4.54 µM. For the same compound, the TGI in the assay with MOLT-4 leukemia is 6.51 µM; in the assay on HT29 colon, 4.34 µM; in the assay with A549 NSCLC it was 41.9 µM.
As to `CN(C)CC/C(=N\Nc1c(Cl)cccc1Cl)c1ccccc1`, the TGI came out at 33.4 µM in the assay on NCI-H23 lung; 29.9 µM in the assay with NCI-H460 lung; 63.4 µM in the assay on SR leukemia; 32.7 µM with UACC-257 melanoma; 34.1 µM in the assay on SK-MEL-2 melanoma; 46.8 µM in the assay with RPMI-8226 leukemia. The TGI is 71.7 µM with MOLT-4 leukemia, 29.3 µM with HT29 colon and over 100 µM in the assay with A549 NSCLC.
